Measurements: article PMC7076013 (Scientific Reports, 2020)

Legend:
[1] = test system: COX-2-negative (HCT-116) human colon cancer cell line; conditions: cited from earlier work
[2] = test system: COX-2-overexpressing (HCA-7) human colon cancer cell line; conditions: cited from earlier work
A375, human melanoma = assay: MTT cell viability, A375; format: cell-based; conditions: 48 h, MTT or CV
Experimental: Both melanoma and colon cancer are tumor types tightly connected with inflammation, while the expression of COX-2 in the selected cell lines was highly variable. Since a lot of discrepancies were found in the literature concerning the expression of this enzyme[5],[48]–[53], both COX-1 and COX-2 expression was analyzed by Western blot. […] The cells were treated with a wide range of doses of 4a–c, 5, and 6 for 48 h and cell viability was determined by MTT (3-(4,5-dimethylthiazol-2-yl)-2,5-diphenyltetrazolium bromide) and CV (crystal violet) assays. The obtained IC50 values were similar for both assays (Table 1).
Reagents were obtained from Sigma (St. Louis, MO) unless indicated otherwise. Annexin V - FITC (AnnV) was acquired from Biotium (Hayward, CA) and Apostat from R&D (R&D S ystems, Minneapolis, MN USA). […] After being detached b y tr ypsinization, cells were seeded in defined number as follows: 2.5 × 10^3 cells/well in 96-well plates for viability assessment and 2 × 10^4 cells/well in 24-well plates for flow cytometry. […]
Committee at IBISS (02- 09/1 6). Cells were counted and seeded in 96-well plates and incubat ed overnight. Before treatment, non- adherent cells were removed. Compounds 4a- c, 5 and 6 were dissolved in DMSO and stored at −20 °C for a m onth. Working solutions were freshl y prepared in 10% FCS-RPMI-1640. Controls were treated with culture medium containing the equivalent […]
3.2. Cell viability tests.
The number of viable cel ls in culture was estimated by the MTT (3-(4,5- dimethylthiazol- 2-yl ) - 2,5- diphenyltetrazolium bromide) and CV (crystal violet) tests. Cells were incubated in the presence of compounds 4a- c, 5 and 6 for 48 h, then the viability was measured as described.4 […]
The results were ex pressed as a p er centage of a v alue obtained for the untr eated control cells that was arbitrarily set to be 100%. A non- linear regression analysis of obtained results was done b y using Gr aphPad Prism software to calculat e IC50 values. […]

## CS(=O)(=O)c1ccc(C2=C(c3ccccc3)C(=O)OC2)cc1 [Rofecoxib]
[1]
  activity against HCT-116: inactive
[2]
  activity against HCA-7: inactive
A375, human melanoma
  viability of A375 cells: did not result in significantly decreased viability
